# Data as given in US10471035B2, “Compositions and methods for using esters of meroterpenes and of other resveratrol analogues” (Sunny BioDiscovery, priority 2014, dated 2019).
# System: UVA-irradiated epidermal substitutes cultured on adult fibroblast monolayer
# Test: Gene expression in UVA-irradiated epidermal substitutes; GEO matching
# Type: cell-based
# Text: (GSE: GEO Series; GPL: GEO Platforms; stats between −0.05 and 0.05 considered not significant match).
# (GSE: GEO Series; GPL: GEO Platforms; stats between −0.05 and 0.05 considered not a significant match).
compound,measurement,setting,value
"C=C[C@@](C)(/C=C/c1ccc(OC(=O)c2ccccc2O)cc1)CCC=C(C)C [SBD.SE, Salicylic acid ester of bakuchiol]",GEO match Stat,"vitro122 keratinocytes PD98059 24/48 HRS -VS- keratinocytes untreated (GSE50591/GPL571), not matching retinol palmitate",−0.082
same,GEO match Stat,"vitro124 keratinocytes SP60125 SB203580 PD98059 24/48 HRS -VS- keratinocytes untreated (GSE50591/GPL571), not matching retinol palmitate",−0.116
same,GEO match Stat,"vitro128 keratinocytes mitomycin C 18 hrs -VS- keratincytes untreated (GSE50568/GPL570), not matching retinol palmitate",−0.147
same,GEO match Stat,vitro129 keratinocytes N/Tert immortalized -VS- keratinocytes empty vector (GSE50568/GPL570),0.105
same,GEO match Stat,vitro131 reconstituted epidermis scabies mite extract -VS- reconstituted epidermis untreated (GSE48459/GPL6244),−0.105
same,GEO match Stat,vitro132 HaCaT keratinocytes cidofovir -VS- HaCaT keratinocytes untreated (GSE39293/GPL570),−0.116
same,GEO match Stat,vitro134 keratinocytes keloid -VS- keratinocytes uninvolved (GSE44270/GPL6244),0.153
same,GEO match Stat,vitro137 N/TERT-1 keratinocytes miR-198 -VS- N/TERT-1 keratinocytes control (GSE37967/GPL10558),0.197
same,GEO match Stat,vitro139 HaCaT keratinocytes miR-483-3p overexpression -VS- HaCaT keratinocytes control (GSE19931/GPL1456),−0.08
same,GEO match Stat,vitro145 HaCaT keratinocytes cobalt(II) chloride 3 hrs -VS- HaCaT keratinocytes water control (GSE16727/GPL4133),0.1
same,GEO match Stat,"vitro147 HaCaT keratinocytes tungsten carbide cobalt 3 days -VS- HaCaT keratinocytes water control (GSE16727/GPL4133), not matching retinol palmitate",0.09
same,GEO match Stat,vitro148 HaCaT keratinocytes cobalt(II) chloride 3 hrs -VS- HaCaT keratinocytes water control (GSE16727/GPL4133),0.122
same,GEO match Stat,vitro150 reconstituted epidermis 0 hrs after 10 cGy radiation -VS- reconstituted epidermis control (GSE29344/GPL6883),−0.073
same,GEO match Stat,vitro151 reconstituted epidermis 3 hrs after 10 cGy radiation -VS- reconstituted epidermis control (GSE29344/GPL6883),−0.088
same,GEO match Stat,vitro152 reconstituted epidermis 8 hrs after 10 cGy radiation -VS- reconstituted epidermis control (GSE29344/GPL6883),−0.078
same,GEO match Stat,vitro153 reconstituted epidermis 24 hrs after 10 cGy radiation -VS- reconstituted epidermis control (GSE29344/GPL6883),−0.154
same,GEO match Stat,vitro156 reconstituted epidermis 8 hrs after 100 cGy radiation -VS- reconstituted epidermis control (GSE29344/GPL6883),−0.119
same,GEO match Stat,"vitro160 HaCaT keratinocytes 5′-aza-2-deoxycytidine -VS- HaCaT keratinocytes untreated (GSE33493/GPL6883), not matching retinol palmitate",−0.098
same,GEO match Stat,vitro165 HaCaT keratinocytes Ino-C2-PAF + IL1A + IL17 + IL22 + TNF + OsM -VS- HaCaT keratinocytes untreated (GSE37361/GPL13607),−0.119
same,GEO match Stat,"vivo1 PP skin -VS- PN skin (GSE2737/GPL91), not matching retinol palmitate",0.085
same,GEO match Stat,"vivo6 PP skin -VS- PN skin (GSE26866/GPL571), not matching retinol palmitate",0.127
same,GEO match Stat,"vivo7 PP skin -VS- PN skin (GSE30999/GPL570), not matching retinol palmitate",0.115
same,GEO match Stat,"vivo8 PP skin -VS- NN skin (GSE13355/GPL570), not matching retinol palmitate",0.123
same,GEO match Stat,"vivo9 PP skin -VS- NN skin (GSE14905/GPL570), not matching retinol palmitate",0.132
same,GEO match Stat,"vivo12 PP epidermis -VS- PN epidermis (GSE26866/GPL571), not matching retinol palmitate",0.084
same,GEO match Stat,"vivo15 PP skin 1 wk etanercept -VS- PN skin baseline (GSE11903/GPL571), not matching retinol palmitate",0.108
same,GEO match Stat,"vivo19 PP skin etanercept 1 wk -VS- PP skin baseline (GSE11903/GPL571), not matching retinol palmitate",−0.134
same,GEO match Stat,vivo25 PN skin IFNg-treated 24 hrs -VS- PN skin baseline (GSE32407/GPL571),−0.11
same,GEO match Stat,vivo26 PN skin IFNg-treated 24 hrs -VS- PN skin placebo 24 hrs (GSE32407/GPL571),−0.119
same,GEO match Stat,vivo27 NN skin IFNg-treated 24 hrs -VS- NN skin baseline (GSE32407/GPL571),−0.09
same,GEO match Stat,vivo32 atopic dermatitis uninvolved epidermis -VS- NN epidermis (GSE26952/GPL2700),0.098
same,GEO match Stat,vivo42 atopic dermatitis lesion -VS- NN skin (GSE5667/GPL96 + GPL97),0.11
same,GEO match Stat,vivo43 atopic dermatitis lesion -VS- uninvolved skin (GSE5667/GPL96 + GPL97),0.111
same,GEO match Stat,vivo49 epidermis sodium lauryl sulphate 11 days -VS- epidermis basline (GSE18206/GPL570),0.152
same,GEO match Stat,vivo50 epidermis nonanoic acid 30 min -VS- epidermis basline (GSE18206/GPL570),0.125
same,GEO match Stat,vivo51 epidermis nonanoic acid 4 hrs -VS- epidermis basline (GSE18206/GPL570),0.103
same,GEO match Stat,vivo53 epidermis nonanoic acid 11 days -VS- epidermis basline (GSE18206/GPL570),0.17
same,GEO match Stat,"vivo59 wound margin 7+ days healed -VS- NN skin (GSE8056/GPL570), not matching retinol palmitate",0.094
same,GEO match Stat,"vivo73 skin diffuse cutaneous systemic sclerosis -VS- NN skin (GSE32413/GPL4133), not matching retinol palmitate",0.088
same,GEO match Stat,"vivo76 skin isotretinoin 8 wks -VS- skin baseline (GSE11792/GPL571), not matching retinol palmitate",−0.128
same,GEO match Stat,vivo82 skin Haemophilus ducreyi infected -VS- skin PBS treated (GSE5547/GPL570),−0.105
same,GEO match Stat,"vivo83 basal cell carcinoma -VS- NN skin (GSE7553/GPL570), not matching retinol palmitate",0.081
same,GEO match Stat,"vivo85 squamous cell carcinoma -VS- NN skin (GSE7553/GPL570), not matching retinol palmitate",0.12
same,GEO match Stat,"vivo88 squamous cell carcinoma -VS- NN skin (GSE2503/GPL96), not matching retinol palmitate",0.111
same,GEO match Stat,"vivo93 melanoma in situ -VS- NN skin (GSE4587/GPL570), not matching retinol palmitate",0.102
same,GEO match Stat (inverse correlation with SBD.SE effect),vivo99 UVB radiation 1 minimal erythema dose -VS- untreated skin (GSE22083/GPL96),−0.088
same,GEO match Stat (inverse correlation with SBD.SE effect),vivo100 UVB radiation 100 J/m2 -VS- untreated skin (GSE22083/GPL96),−0.102
same,GEO match Stat (inverse correlation with SBD.SE effect),vivo101 UVA radiation 0.1 minimal erythema dose -VS- untreated skin (GSE22083/GPL96),−0.096
same,GEO match Stat,"vivo110 reticular dermis -VS- NN Skin (GSE42114/GPL570), not matching retinol palmitate",−0.074
same,GEO match Stat,vivo114 dermatomyositis -VS- NN Skin (GSE46239/GPL570),0.116
same,GEO match Stat,"vivo115 seborrheic keratosis -VS- uninvolved Skin (GSE22998/(GPL570)), not matching retinol palmitate",0.075
same,GEO match Stat,"vivo116 eschars in mediterranean spotted fever -VS- NN Skin (GSE32993/GPL6480), not matching retinol palmitate",0.097
same,GEO match Stat,vivo118 narrow-band UVB 24 hrs -VS- uninvolved skin (GSE41078/GPL571),−0.116
same,GEO match Stat,"vivo120 atopic dermatitis chronic -VS- uninvolved skin (GSE36842/GPL570), not matching retinol palmitate",0.125
